{"source": "patent US8394825B2", "about": "“Compound” (Sterix Limited, priority 2007, dated 2013)"}
{"units": {"melting point": "°C"}}
{"smiles": "COc1cc2c(cc1O)CCN(S(=O)(=O)c1cccc(CC(=O)O)c1)C2=O", "note": "[203A, 6-Hydroxy-7-methoxy-2-(3-carboxymethyl-benzenesulfonyl)-3,4-dihydro-2H-isoquinolin-1-one]", "melting point": "236 to 239"}
{"smiles": "COc1cc(CN2CCc3cc(O)ccc3C2)cc(OC)c1", "note": "[B20, 2-(3,5-Dimethoxybenzyl)-1,2,3,4-tetrahydroisoquinolin-6-ol]", "melting point": "189 to 195"}
{"smiles": "COc1cc2c(cc1OCc1ccccc1)CC(C)(C)N(C(=O)c1cc(OC)c(OC)c(OC)c1)C2C", "note": "(stereo not shown) [compound 245, (6-(Benzyloxy)-3,4-dihydro-7-methoxy-1,3,3-trimethylisoquinolin-2(1H)-yl)-(3,4,5-trimethoxyphenyl)methanone]", "melting point": "175 to 177"}
{"smiles": "COc1cccc(CC2CCCc3cc(OCc4ccccc4)c(OC)cc3N2)c1", "note": "(stereo not shown) [compound 303, 7-Benzyloxy-8-methoxy-2-(3-methoxybenzyl)-2,3,4,5-tetrahydro-1H-benzoazepine]", "melting point": "92 to 93"}
{"smiles": "COc1cc2c(cc1O)CC(C)N(Cc1cc(OC)c(OC)c(OC)c1)C2", "note": "(stereo not shown) [compound 219, 2-(3,4,5-Trimethoxybenzyl)-1,2,3,4-tetrahydro-7-methoxy-3-methylisoquinolin-6-ol]", "melting point": "127 to 132"}
{"smiles": "COc1cc2c(cc1O)C(OC)CN(Cc1ccccc1OC)C2", "note": "(stereo not shown) [F30, 4,7-Dimethoxy-2-(2-methoxybenzyl)-1,2,3,4-tetrahydro-isoquinolin-6-ol]", "melting point": "45 to 47"}
{"smiles": "COc1ccc(CN2CCCc3cc(O)c(OC)cc3C2)cc1", "note": "[compound 308, 7-Hydroxy-8-methoxy-2-(4-methoxybenzyl)-2,3,4,5-tetrahydro-1H-benzo[c]azepine]", "melting point": "105 to 107"}
{"smiles": "COc1cccc(CN2CCc3cc(O)c(OC)cc3C2C)c1", "note": "(stereo not shown) [compound 253, 2-(3-Methoxybenzyl)-1,2,3,4-tetrahydro-7-methoxy-1-methylisoquinolin-6-ol]", "melting point": "97 to 99"}
{"smiles": "COc1cc2c(cc1OCc1ccccc1)C(OC)CN(Cc1cc(OC)c(OC)c(OC)c1)C2", "note": "(stereo not shown) [F22, 6-Benzyloxy-4,7-dimethoxy-2-(3,4,5-trimethoxybenzyl)-1,2,3,4-tetrahydroisoquinoline]", "melting point": "89 to 90"}
{"smiles": "COc1cc(OC)c(CN2CCc3cc(O)c(OC)cc3C2)c(OC)c1", "note": "[F3, 7-Methoxy-2-(2,4,6-trimethoxybenzyl)-1,2,3,4-tetrahydroisoquinolin-6-ol]", "melting point": "150 to 151"}
{"smiles": "CCOC1CN(Cc2ccc(OC)cc2)Cc2cc(OC)c(O)cc21", "note": "(stereo not shown) [F36, 4-Ethoxy-7-methoxy-2-(4-methoxybenzyl)-1,2,3,4-tetrahydroisoquinolin-6-ol]", "melting point": "154 to 157"}
{"smiles": "COc1cc2c(cc1O)CCN(Cc1cc(F)cc(F)c1)C2", "note": "[F6, 2-(3,5-Difluorobenzyl)-7-methoxy-1,2,3,4-tetrahydroisoquinolin-6-ol]", "melting point": "110 to 111"}
{"smiles": "COc1cc2c(cc1OCc1ccccc1)CCCN(Cc1cc(OC)c(OC)c(OC)c1)C2=O", "note": "[compound 314, 7-Benzyloxy-8-methoxy-2-(3,4,5-trimethoxybenzyl)-2,3,4,5-tetrahydro-1H-benzo[c]azepin-1-one]", "melting point": "134 to 135"}
{"smiles": "CCOC1CN(Cc2cc(OC)c(OC)c(OC)c2)Cc2cc(OC)c(OCc3ccccc3)cc21", "note": "(stereo not shown) [F26, 6-Benzyloxy-4-ethoxy-7-methoxy-2-(3,4,5-trimethoxybenzyl)-1,2,3,4-tetrahydro-isoquinoline]", "melting point": "132 to 133"}
{"smiles": "COc1cccc(CN2CCc3cc(O)ccc3C2)c1OC", "note": "[B21, 2-(2,3-Dimethoxybenzyl)-1,2,3,4-tetrahydroisoquinolin-6-ol]", "melting point": "111 to 115"}
{"smiles": "COc1cccc(CN2Cc3cc(OC)c(O)cc3C(OC)C2)c1", "note": "(stereo not shown) [F31, 4,7-Dimethoxy-2-(3-methoxybenzyl)-1,2,3,4-tetrahydro-isoquinolin-6-ol]", "melting point": "133 to 134"}
{"smiles": "CCOc1cc(C(=O)N2CCc3cc(O)ccc3C2)cc(OCC)c1OCC", "note": "[B14, 2-(3,4,5-Triethoxybenzoyl)-1,2,3,4-tetrahydroisoquinolin-6-ol]", "melting point": 158}
{"smiles": "COc1cc2c(cc1O[Si](C(C)C)(C(C)C)C(C)C)CCN(Cc1cccc([N+](=O)[O-])c1)C2", "melting point": "57.3 to 58.6"}
{"smiles": "COc1ccc(CCN2CCc3cc(OCc4ccccc4)c(OC)cc3C2)cc1", "note": "[compound 14, 6-Benzyloxy-7-methoxy-2-(4-methoxyphenethyl)-1,2,3,4-tetrahydroisoquinoline]", "melting point": "88 to 89"}
{"smiles": "COc1cc2c(cc1O)CCN(Cc1cccc(OC(C)=O)c1)C2", "note": "[compound 51, 6-Hydroxy-7-methoxy-2-(3-acetoxybenzyl)-1,2,3,4-tetrahydroisoquinoline]", "melting point": "120 to 122"}
{"smiles": "COc1cc2c(cc1O)CCC(=O)N2Cc1cc(OC)c(OC)c(OC)c1", "note": "[compound 293, 6-Hydroxy-7-methoxy-1-(3,4,5-trimethoxybenzyl)-3,4-dihydro-1H-quinolin-2-one]", "melting point": "157 to 158"}
{"smiles": "COc1ccc(CCN2CCc3cc(O)c(OC)cc3C2)cc1", "note": "[compound 46, 6-Hydroxy-7-methoxy-2-(4-methoxyphenethyl)-1,2,3,4-tetrahydroisoquinoline]", "melting point": "170 to 171"}
{"smiles": "COc1cc2c(cc1OS(N)(=O)=O)CC(C)(C)N(C(=O)c1cc(OC)c(OC)c(OC)c1)C2C", "note": "(stereo not shown) [compound 247, Sulfamic acid 7-methoxy-1,3,3-trimethyl-2-(3,4,5-trimethoxy-benzoyl)-1,2,3,4-tetrahydro-isoquinolin-6-yl ester]", "melting point": "170 to 173"}
{"smiles": "COc1cc(OC)c(C(=O)N2CCc3cc(O)ccc3C2)cc1OC", "note": "[B11, 2-(2,4,5-Trimethoxybenzoyl)-1,2,3,4-tetrahydroisoquinolin-6-ol]", "melting point": "180 to 188"}
{"smiles": "COc1cc2c(cc1OCc1ccccc1)CCN(Cc1cccnc1)C2", "note": "[compound 11, 6-Benzyloxy-7-methoxy-2-(pyridin-3-ylmethyl)-1,2,3,4-tetrahydroisoquinoline]", "melting point": "78 to 79"}
{"smiles": "COc1ccc(C(=O)N2CCc3cc(O)ccc3C2)c(OC)c1", "note": "[B8, 2-(2,4-Dimethoxybenzoyl)-1,2,3,4-tetrahydroisoquinolin-6-ol]", "melting point": "62 to 87"}
{"smiles": "CCOc1cccc(C(=O)N2CCc3cc(O)ccc3C2)c1", "note": "[B4, 2-(3-Ethoxybenzoyl)-1,2,3,4-tetrahydroisoquinolin-6-ol]", "melting point": "150 to 151"}
{"smiles": "CCOc1ccc(C(=O)N2CCc3cc(O)ccc3C2)cc1OCC", "note": "[B6, 2-(3,4-Diethoxybenzoyl)-1,2,3,4-tetrahydroisoquinolin-6-ol]", "melting point": "149 to 160"}
{"smiles": "COc1cc2c(cc1O)CCN(Cc1cccnc1)C2", "note": "[compound 47, 6-Hydroxy-7-methoxy-2-(pyridin-3-ylmethyl)-1,2,3,4-tetrahydroisoquinoline]", "melting point": "165 to 166"}
{"smiles": "COc1cc(OC)c(C(=O)N2CCc3cc(OCc4ccccc4)c(OC)cc3C2)c(OC)c1", "note": "[F1, 6-Benzyloxy-7-methoxy-2-(2,4,6-trimethoxybenzoyl)-1,2,3,4-tetrahydroisoquinoline]", "melting point": "70 to 72"}
{"smiles": "COc1cc2c(cc1O)C(O)CN(Cc1cc(OC)c(OC)c(OC)c1)C2", "note": "(stereo not shown) [F29, 7-Methoxy-2-(3,4,5-trimethoxybenzyl)-1,2,3,4-tetrahydroisoquinoline-4,6-diol]", "melting point": "62 to 63"}
{"smiles": "COc1ccc(OC)c(C(=O)N2CCc3cc(O)ccc3C2)c1", "note": "[B7, 2-(2,5-Dimethoxybenzoyl)-1,2,3,4-tetrahydroisoquinolin-6-ol]", "melting point": "61 to 86"}
{"smiles": "CCOc1cccc(CN2CCc3cc(O)ccc3C2)c1", "note": "[B18, 2-(3-Ethoxybenzyl)-1,2,3,4-tetrahydroisoquinolin-6-ol]", "melting point": "120 to 121"}
{"smiles": "COc1cc2c(cc1O)CCCN(Cc1cc(OC)c(OC)c(OC)c1)C2", "note": "[compound 309, 7-Hydroxy-8-methoxy-2-(3,4,5-trimethoxybenzyl)-2,3,4,5-tetrahydro-1H-benzo[c]azepine]", "melting point": "46 to 48"}
{"smiles": "COc1cccc(C(=O)N2CCc3cc(OCc4ccccc4)c(OC)cc3C2=O)c1", "note": "[compound 131, 6-Benzyloxy-7-methoxy-2-(3-methoxybenzoyl)-3,4-dihydro-2H-isoquinoline-1-one]", "melting point": "141 to 143"}
{"smiles": "COc1cc(CC(=O)N2CCc3cc(O)ccc3C2)cc(OC)c1OC", "note": "[B5, 2-(3,4,5-Trimethoxyphenylacetyl)-1,2,3,4-tetrahydroisoquinolin-6-ol]", "melting point": "37 to 53"}
{"smiles": "COc1cc2c(cc1OCc1ccccc1)CCN(Cc1cccc(O[Si](C(C)C)(C(C)C)C(C)C)c1)C2", "melting point": "78 to 79"}
{"smiles": "Oc1ccc2c(c1)CCN(Cc1ccc3c(c1)OCO3)C2", "note": "[B2, 2-Piperonyl-1,2,3,4-tetrahydroisoquinolin-6-ol]", "melting point": "63 to 87"}
{"smiles": "COc1cc2c(cc1OCc1ccccc1)CCN(Cc1ccncc1)C2", "note": "[compound 13, 6-Benzyloxy-7-methoxy-2-(pyridin-4-ylmethyl)-1,2,3,4-tetrahydroisoquinoline]", "melting point": "125 to 126"}
{"smiles": "COc1cccc(CN2Cc3cc(OC)c(OCc4ccccc4)cc3C(OC)C2)c1", "note": "(stereo not shown) [F20, 6-Benzyloxy-4,7-dimethoxy-2-(3-methoxybenzyl)-1,2,3,4-tetrahydroisoquinoline]", "melting point": "96 to 97"}
{"smiles": "COc1cc2c(cc1OCc1ccccc1)CCN(Cc1cccc(O)c1)C2", "note": "[compound 30, 6-Benzyloxy-2-(3-hydroxybenzyl)-7-methoxy-1,2,3,4-tetrahydroisoquinoline]", "melting point": "78 to 79"}
{"smiles": "COc1cc2c(cc1OCc1ccccc1)CCN(Cc1cccc(NS(C)(=O)=O)c1)C2", "note": "[compound 36, 6-(Benzyloxy)-2-(3-methanesulfonylaminobenzyl)-7-methoxy-1,2,3,4-tetrahydroisoquinoline]", "melting point": "132 to 133"}
{"smiles": "COc1ccccc1CN1CCc2cc(O)ccc2C1", "note": "[B16, 2-(2-Methoxybenzyl)-1,2,3,4-tetrahydroisoquinolin-6-ol]", "melting point": "148 to 155"}
{"smiles": "COc1cccc(CN2Cc3cc(OC)c(O)cc3C(O)C2)c1", "note": "(stereo not shown) [F28, 7-Methoxy-2-(3-methoxybenzyl)-1,2,3,4-tetrahydroisoquinoline-4,6-diol]", "melting point": "137 to 138"}
{"smiles": "COc1cc(OC)cc(C(=O)N2CCc3cc(O)ccc3C2=O)c1", "note": "[compound 137, 2-(3,5-Dimethoxybenzoyl)-6-hydroxy-3,4-dihydro-2H-isoquinoline-1-one]", "melting point": "178 to 179"}
{"smiles": "COc1cc2c(cc1O)CCN(Cc1cccc(NS(C)(=O)=O)c1)C2", "note": "[compound 52, 6-Hydroxy-7-methoxy-2-(3-methanesulfonylaminobenzyl)-1,2,3,4-tetrahydroisoquinoline]", "melting point": "99 to 101"}
